This passage reports IC50 results from patent publication US8901133B2, “Heterocyclic compounds and uses thereof” (Infinity Pharmaceuticals, Inc., priority 2010, dated 2014).

One assay deals with Balb/c splenic B cells. The experiment in a line: B cell activation and proliferation assay (Alamar Blue). Format: cell-based. To be noted: Mus musculus, read-out: B cell prolif. IC50. As for the experimental part: The ability of one or more subject compounds to inhibit B cell activation and proliferation is determined according to standard procedures known in the art. For example, an in vitro cellular proliferation assay is established that measures the metabolic activity of live cells. The assay is performed in a 96 well microtiter plate using Alamar Blue reduction. Balb/c splenic B cells are purified over a Ficoll-Paque™ PLUS gradient followed by magnetic cell separation using a MACS B cell Isolation Kit (Miletenyi). Cells are plated in 90 ul at 50,000 cells/well in B Cell Media (RPMI+10% FBS+Penn/Strep+50 uM bME+5 mM HEPES). A compound disclosed herein is diluted in B Cell Media and added in a 10 μl volume. Plates are incubated for 30 min at 37 C and 5% CO2 (0.2% DMSO final concentration). A 50 μl B cell stimulation cocktail is then added containing either 10 ug/ml LPS or 5 ug/ml F(ab′)2 Donkey anti-mouse IgM plus 2 ng/ml recombinant mouse IL4 in B Cell Media. Plates are incubated for 72 hours at 37° C. and 5% CO2. A volume of 15 μl of Alamar Blue reagent is added to each well and plates are incubated for 5 hours at 37 C and 5% CO2. Alamar Blue fluoresce is read at 560Ex/590Em, and IC50 or EC50 values are calculated using GraphPad Prism 5.
(In general: Alamar Blue is a resazurin reagent that responds to reducing activity.)

The next assay addresses T1, PI3Kγ (Homo sapiens, UniProt P48736).
T1 construct: purchased Millipore Corporation 14-558-K
The experiment in a line: PI3 Kinase HTRF assay, PI3Kγ. To be noted: 10 μM PIP2, 10 μM ATP; read-out: PI3K γ IC50. The format is biochemical. A digest of the protocol: (§1)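 Compounds were tested at 12 concentrations from 20 μM down to 0.1 nM against purified recombinant PI3K, which phosphorylated PIP2 (10 μM) in the presence of ATP (10 μM). Formed PIP3 was quantified by time-resolved FRET using GRP1 PH domain binding; emission ratios gave percent inhibition and IC50.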
On the technique in general: In TR-FRET formats the signal depends on donor and acceptor labels being close together.

Another assay addresses T2, PI3Kδ (Homo sapiens, UniProt O00329).
T2 construct: purchased Millipore Corporation 14-604-K
The experiment in a line: PI3 Kinase HTRF assay, PI3Kδ. Format: biochemical. To be noted: 10 μM PIP2, 10 μM ATP; read-out: PI3K δ IC50. Summed up: as §1

The target in another assay is T3, PI3Kβ (Homo sapiens, UniProt P42338).
T3 construct: purchased Millipore Corporation 14-603-K
T3 sequence (P42338 whole entry): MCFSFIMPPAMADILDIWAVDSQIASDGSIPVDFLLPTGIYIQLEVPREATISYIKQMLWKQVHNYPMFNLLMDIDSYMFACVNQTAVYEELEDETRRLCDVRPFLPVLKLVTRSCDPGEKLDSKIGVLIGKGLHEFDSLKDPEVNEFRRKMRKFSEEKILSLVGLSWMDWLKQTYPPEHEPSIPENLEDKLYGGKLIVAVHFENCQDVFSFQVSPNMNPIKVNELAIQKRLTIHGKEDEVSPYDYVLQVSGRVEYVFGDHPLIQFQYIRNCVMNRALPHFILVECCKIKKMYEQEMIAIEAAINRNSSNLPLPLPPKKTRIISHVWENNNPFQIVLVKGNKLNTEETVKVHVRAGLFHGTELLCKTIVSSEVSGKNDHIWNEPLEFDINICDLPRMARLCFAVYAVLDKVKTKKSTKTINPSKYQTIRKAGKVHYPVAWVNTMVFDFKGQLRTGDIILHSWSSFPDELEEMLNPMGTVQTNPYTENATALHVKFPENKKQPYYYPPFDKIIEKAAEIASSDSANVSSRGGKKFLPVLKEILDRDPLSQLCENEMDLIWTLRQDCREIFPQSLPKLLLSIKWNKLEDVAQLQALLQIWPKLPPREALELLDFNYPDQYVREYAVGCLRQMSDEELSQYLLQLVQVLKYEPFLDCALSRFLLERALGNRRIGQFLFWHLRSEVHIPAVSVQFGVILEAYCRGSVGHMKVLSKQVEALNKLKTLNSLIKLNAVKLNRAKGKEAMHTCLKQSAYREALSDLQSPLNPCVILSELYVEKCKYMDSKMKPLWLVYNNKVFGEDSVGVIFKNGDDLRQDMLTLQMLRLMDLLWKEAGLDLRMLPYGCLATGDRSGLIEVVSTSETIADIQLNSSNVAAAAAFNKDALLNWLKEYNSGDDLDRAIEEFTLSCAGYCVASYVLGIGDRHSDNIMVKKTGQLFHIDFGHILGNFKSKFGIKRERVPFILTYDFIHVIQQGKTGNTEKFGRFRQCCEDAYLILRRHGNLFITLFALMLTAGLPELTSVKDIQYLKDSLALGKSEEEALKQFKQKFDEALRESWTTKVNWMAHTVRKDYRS
T3 sequence (P27986 whole entry partner): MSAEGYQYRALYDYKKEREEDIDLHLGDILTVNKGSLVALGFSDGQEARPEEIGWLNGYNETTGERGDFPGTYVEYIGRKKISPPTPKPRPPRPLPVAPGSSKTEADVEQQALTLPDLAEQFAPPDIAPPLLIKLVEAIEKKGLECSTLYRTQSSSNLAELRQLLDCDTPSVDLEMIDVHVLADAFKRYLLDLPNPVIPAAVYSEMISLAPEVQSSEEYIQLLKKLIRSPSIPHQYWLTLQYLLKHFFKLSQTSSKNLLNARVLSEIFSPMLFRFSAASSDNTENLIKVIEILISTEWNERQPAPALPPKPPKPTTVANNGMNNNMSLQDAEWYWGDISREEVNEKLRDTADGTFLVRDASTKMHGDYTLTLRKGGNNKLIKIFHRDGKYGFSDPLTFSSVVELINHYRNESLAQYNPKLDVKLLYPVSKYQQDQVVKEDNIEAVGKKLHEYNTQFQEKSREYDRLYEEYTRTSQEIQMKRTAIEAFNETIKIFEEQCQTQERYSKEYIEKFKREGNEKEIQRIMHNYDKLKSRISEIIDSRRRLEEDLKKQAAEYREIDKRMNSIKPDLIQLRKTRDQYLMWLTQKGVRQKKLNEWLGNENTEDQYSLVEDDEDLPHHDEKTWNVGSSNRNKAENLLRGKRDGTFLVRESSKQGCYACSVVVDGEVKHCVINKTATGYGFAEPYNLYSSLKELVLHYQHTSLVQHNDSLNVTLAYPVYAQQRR
The experiment in a line: PI3 Kinase HTRF assay, PI3Kβ. The format is biochemical. To be noted: 10 μM PIP2, 10 μM ATP; read-out: PI3K β IC50. Summed up:
as §1

The next assay deals with T4, PI3Kα (Homo sapiens, UniProt P42336).
T4 construct: purchased Millipore Corporation 14-602-K
T4 sequence (P42336 whole entry): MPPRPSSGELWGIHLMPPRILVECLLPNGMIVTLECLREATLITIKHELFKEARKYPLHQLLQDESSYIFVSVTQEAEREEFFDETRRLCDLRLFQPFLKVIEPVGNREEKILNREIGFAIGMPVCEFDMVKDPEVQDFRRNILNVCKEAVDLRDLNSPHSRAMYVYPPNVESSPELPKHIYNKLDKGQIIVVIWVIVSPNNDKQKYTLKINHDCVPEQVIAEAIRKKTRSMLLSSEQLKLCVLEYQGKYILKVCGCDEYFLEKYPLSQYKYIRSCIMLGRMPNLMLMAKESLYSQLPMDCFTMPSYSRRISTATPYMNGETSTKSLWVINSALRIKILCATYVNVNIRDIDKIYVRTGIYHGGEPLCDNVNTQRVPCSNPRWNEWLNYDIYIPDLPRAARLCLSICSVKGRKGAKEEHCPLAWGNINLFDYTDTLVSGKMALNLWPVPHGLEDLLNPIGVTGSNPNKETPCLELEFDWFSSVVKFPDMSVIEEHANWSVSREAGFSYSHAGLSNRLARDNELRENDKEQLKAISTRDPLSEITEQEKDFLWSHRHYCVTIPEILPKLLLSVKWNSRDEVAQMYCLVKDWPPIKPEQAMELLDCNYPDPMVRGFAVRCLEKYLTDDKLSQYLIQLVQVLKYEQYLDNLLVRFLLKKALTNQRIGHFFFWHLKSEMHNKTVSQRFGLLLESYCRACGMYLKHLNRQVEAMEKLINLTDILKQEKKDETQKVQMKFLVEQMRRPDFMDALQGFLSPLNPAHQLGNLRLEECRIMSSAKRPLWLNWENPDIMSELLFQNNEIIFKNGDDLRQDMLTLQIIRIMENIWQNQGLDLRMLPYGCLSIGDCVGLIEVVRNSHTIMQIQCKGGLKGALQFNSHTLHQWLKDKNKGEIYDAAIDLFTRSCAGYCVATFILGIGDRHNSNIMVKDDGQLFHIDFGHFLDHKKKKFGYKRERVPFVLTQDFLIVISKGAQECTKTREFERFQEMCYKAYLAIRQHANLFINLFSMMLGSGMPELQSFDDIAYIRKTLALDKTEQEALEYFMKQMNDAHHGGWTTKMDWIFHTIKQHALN
T4 sequence (P27986 whole entry partner): as the sequence (P27986 whole entry partner) above
The experiment in a line: PI3 Kinase HTRF assay, PI3Kα. The note with it: 10 μM PIP2, 10 μM ATP; read-out: PI3K α IC50. Format: biochemical. A digest of the protocol:
as §1

As usually defined, the IC50 is the concentration that gives 50% inhibition.

T2 sequence (O00329 whole entry): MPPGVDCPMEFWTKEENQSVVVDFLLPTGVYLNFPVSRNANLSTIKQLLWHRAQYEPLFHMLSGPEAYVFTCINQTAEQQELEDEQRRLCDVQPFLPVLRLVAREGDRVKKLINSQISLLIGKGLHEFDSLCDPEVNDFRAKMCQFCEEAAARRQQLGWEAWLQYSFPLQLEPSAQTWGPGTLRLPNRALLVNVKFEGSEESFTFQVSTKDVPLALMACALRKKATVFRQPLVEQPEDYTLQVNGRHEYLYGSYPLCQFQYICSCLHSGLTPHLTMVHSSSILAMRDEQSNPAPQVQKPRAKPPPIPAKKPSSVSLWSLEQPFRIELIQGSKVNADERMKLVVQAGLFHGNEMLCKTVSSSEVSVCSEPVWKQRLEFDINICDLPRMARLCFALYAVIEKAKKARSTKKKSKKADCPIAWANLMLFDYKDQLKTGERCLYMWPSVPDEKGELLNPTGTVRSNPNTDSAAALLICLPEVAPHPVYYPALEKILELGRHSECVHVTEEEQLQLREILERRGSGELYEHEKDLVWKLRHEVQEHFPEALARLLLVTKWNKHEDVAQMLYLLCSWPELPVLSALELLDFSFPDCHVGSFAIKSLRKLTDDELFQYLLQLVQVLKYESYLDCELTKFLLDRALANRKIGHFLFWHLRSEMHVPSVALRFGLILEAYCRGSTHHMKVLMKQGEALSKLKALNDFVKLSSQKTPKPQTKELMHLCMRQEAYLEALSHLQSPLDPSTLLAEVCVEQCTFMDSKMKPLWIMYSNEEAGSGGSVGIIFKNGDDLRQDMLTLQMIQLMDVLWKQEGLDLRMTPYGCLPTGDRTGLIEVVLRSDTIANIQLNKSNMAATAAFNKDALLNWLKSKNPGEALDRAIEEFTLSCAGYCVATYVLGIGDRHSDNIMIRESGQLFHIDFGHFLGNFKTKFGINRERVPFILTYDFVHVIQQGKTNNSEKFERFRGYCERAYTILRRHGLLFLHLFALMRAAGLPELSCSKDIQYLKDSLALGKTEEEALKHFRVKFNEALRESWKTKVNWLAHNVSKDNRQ
T2 sequence (P27986 whole entry partner): as the sequence (P27986 whole entry partner) above
T1 sequence (P48736 whole entry): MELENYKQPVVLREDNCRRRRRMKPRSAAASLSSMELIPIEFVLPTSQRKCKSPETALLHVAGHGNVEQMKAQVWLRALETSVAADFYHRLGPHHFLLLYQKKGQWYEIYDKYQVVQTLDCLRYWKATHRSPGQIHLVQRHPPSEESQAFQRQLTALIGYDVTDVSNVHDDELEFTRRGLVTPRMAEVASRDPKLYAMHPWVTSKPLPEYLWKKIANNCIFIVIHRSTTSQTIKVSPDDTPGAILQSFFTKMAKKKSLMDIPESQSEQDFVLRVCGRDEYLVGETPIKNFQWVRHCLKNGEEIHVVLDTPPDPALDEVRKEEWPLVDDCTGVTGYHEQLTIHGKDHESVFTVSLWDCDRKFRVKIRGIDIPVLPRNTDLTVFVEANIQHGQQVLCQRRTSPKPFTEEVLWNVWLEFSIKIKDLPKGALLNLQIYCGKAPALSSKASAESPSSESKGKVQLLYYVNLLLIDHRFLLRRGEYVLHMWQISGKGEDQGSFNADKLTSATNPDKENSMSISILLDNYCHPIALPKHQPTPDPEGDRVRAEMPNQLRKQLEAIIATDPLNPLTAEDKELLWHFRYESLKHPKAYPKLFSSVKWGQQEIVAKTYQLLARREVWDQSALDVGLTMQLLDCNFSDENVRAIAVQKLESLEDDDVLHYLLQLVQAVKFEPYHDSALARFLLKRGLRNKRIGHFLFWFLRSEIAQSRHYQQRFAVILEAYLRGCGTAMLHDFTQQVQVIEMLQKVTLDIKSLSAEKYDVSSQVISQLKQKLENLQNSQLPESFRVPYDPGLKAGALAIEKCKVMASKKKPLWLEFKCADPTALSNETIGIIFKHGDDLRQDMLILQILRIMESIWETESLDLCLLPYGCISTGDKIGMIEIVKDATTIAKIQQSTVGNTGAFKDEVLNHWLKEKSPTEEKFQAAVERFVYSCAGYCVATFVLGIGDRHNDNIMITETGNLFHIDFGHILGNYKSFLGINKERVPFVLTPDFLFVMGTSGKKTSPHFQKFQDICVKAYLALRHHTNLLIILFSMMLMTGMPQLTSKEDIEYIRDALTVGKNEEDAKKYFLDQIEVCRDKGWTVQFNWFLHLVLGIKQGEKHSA

Regarding `C[C@H](Nc1ncnc2[nH]cnc12)c1cc2cccc(Cl)c2c(N2CCN(C)CC2)n1` [Compound 46, (S)—N-(1-(8-chloro-1-(4-methylpiperazin-1-yl)isoquinolin-3-yl)ethyl)-9H-purin-6-amine], the IC50 in the assay with Balb/c splenic B cells was less than 0.1 µM; at PI3Kγ, more than 10 µM; at PI3Kδ, less than 0.1 µM; on PI3Kβ, less than 10 µM; at PI3Kα it was more than 10 µM.
Regarding `CC(C)N1CCC(Oc2nc([C@H](C)Nc3ncnc4[nH]cnc34)cc3cccc(Cl)c23)CC1` [Compound 47, (S)—N-(1-(8-chloro-1-(1-isopropylpiperidin-4-yloxy)isoquinolin-3-yl)ethyl)-9H-purin-6-amine], the IC50 in the assay on Balb/c splenic B cells is less than 0.1 µM; on PI3Kγ it was more than 10 µM; at PI3Kδ it was less than 0.1 µM; at PI3Kβ, less than 10 µM; at PI3Kα it was less than 10 µM.
`C[C@H](Nc1ncnc2[nH]cnc12)c1cc2c(F)cccc2c(CCN2CCOCC2)n1` [Compound 53]: the IC50 is less than 0.1 µM in the assay on Balb/c splenic B cells; more than 10 µM on PI3Kγ; less than 0.1 µM on PI3Kδ; more than 10 µM at PI3Kβ; more than 10 µM on PI3Kα.
Turning to `Cc1cccc2cc([C@H](C)Nc3ncnc4[nH]cnc34)nc(OC3CCN(C(C)C)CC3)c12` [Compound 57], the IC50 with Balb/c splenic B cells was less than 1 µM; on PI3Kγ it was more than 10 µM; on PI3Kδ, less than 0.1 µM; on PI3Kβ, less than 10 µM; at PI3Kα it was more than 10 µM.
`C[C@H](Nc1ncnc2[nH]cnc12)c1cc2c(F)ccc(Cl)c2c(CCN2CCOCC2)n1` [Compound 68]: the IC50 was less than 0.1 µM in the assay with Balb/c splenic B cells; less than 10 µM at PI3Kγ; less than 0.1 µM on PI3Kδ; more than 10 µM on PI3Kβ; less than 10 µM on PI3Kα.
For the compound `C[C@H](Nc1ccnc2ccnn12)c1cc2cccc(Cl)c2c(CCN2CCOCC2)n1` [Compound 73], the IC50 was less than 0.1 µM with Balb/c splenic B cells; less than 10 µM on PI3Kγ; less than 0.1 µM at PI3Kδ; less than 1 µM at PI3Kβ; less than 10 µM at PI3Kα.
As for `C[C@H](Nc1ncnc2ccccc12)c1cc2cccc(Cl)c2c(CCN2CCOCC2)n1` [Compound 74], the IC50 in the assay with Balb/c splenic B cells is less than 1 µM; on PI3Kγ, less than 10 µM; on PI3Kδ, less than 0.1 µM; on PI3Kβ, less than 10 µM; at PI3Kα it was less than 10 µM.
Regarding `C[C@H](Nc1ncnc2cccnc12)c1cc2cccc(Cl)c2c(CCN2CCOCC2)n1` [Compound 75], the IC50 is less than 0.1 µM in the assay with Balb/c splenic B cells; less than 1 µM on PI3Kγ; less than 0.1 µM on PI3Kδ; less than 1 µM on PI3Kβ; less than 1 µM at PI3Kα.
As for `C[C@H](Nc1ccnn2ccnc12)c1cc2ccccc2c(CCN2CCOCC2)n1` [Compound 77, (S)—N-(1-(1-(2-morpholinoethyl)isoquinolin-3-yl)ethyl)imidazo[1,2-b]pyridazin-8-amine], the IC50 is less than 0.1 µM in the assay on Balb/c splenic B cells; more than 10 µM on PI3Kγ; less than 0.1 µM at PI3Kδ; more than 10 µM on PI3Kβ; more than 10 µM on PI3Kα.
Turning to `C[C@H](Nc1ncnc2[nH]cnc12)c1nc(CCN2CCOCC2)c2c(Cl)cccc2c1F` [Compound 85, (S)—N-(1-(8-chloro-4-fluoro-1-(2-morpholinoethyl)isoquinolin-3-yl)ethyl)-9H-purin-6-amine], the IC50 in the assay with Balb/c splenic B cells was less than 1 µM; on PI3Kγ, more than 10 µM; on PI3Kδ it was less than 1 µM; at PI3Kβ it was more than 10 µM; on PI3Kα, more than 10 µM.
Turning to `CC(C)N1CCN(c2nc([C@H](C)Nc3ncnc4[nH]cnc34)cc3cccc(Cl)c23)CC1` [Compound 90], the IC50 was less than 0.1 µM in the assay with Balb/c splenic B cells; less than 10 µM at PI3Kγ; less than 0.1 µM at PI3Kδ; less than 10 µM on PI3Kβ; less than 10 µM at PI3Kα.
Turning to `CCN1CCN(c2nc([C@H](C)Nc3ncnc4[nH]cnc34)cc3cccc(Cl)c23)CC1` [Compound 91], the IC50 with Balb/c splenic B cells is less than 0.1 µM; on PI3Kγ it was less than 10 µM; at PI3Kδ it was less than 0.1 µM; at PI3Kβ it was less than 10 µM; at PI3Kα, less than 10 µM.
In the case of `Cc1cccc2cc([C@H](C)Nc3ncnc4[nH]cnc34)nc(OCC3CCN(C)CC3)c12` [Compound 92], the IC50 with Balb/c splenic B cells is less than 0.1 µM; at PI3Kγ, less than 10 µM; on PI3Kδ, less than 0.1 µM; on PI3Kβ, less than 10 µM; at PI3Kα, less than 10 µM.
Regarding `C[C@H](Nc1ncnc2[nH]cnc12)c1cc2cccc(Cl)c2c(SCCN2CCOCC2)n1` [Compound 93, (S)—N-(1-(8-chloro-1-(2-morpholinoethylthio)isoquinolin-3-yl)ethyl)-9H-purin-6-amine], the IC50 in the assay with Balb/c splenic B cells was less than 0.1 µM; at PI3Kγ, less than 1 µM; at PI3Kδ, less than 0.1 µM; at PI3Kβ, less than 1 µM; at PI3Kα it was less than 10 µM.
Regarding `C[C@H](Nc1ncnc2scnc12)c1cc2cccc(Cl)c2c(N2CCN(C)CC2)n1` [Compound 98], the IC50 in the assay with Balb/c splenic B cells is less than 0.1 µM; on PI3Kγ, less than 10 µM; on PI3Kδ, less than 0.1 µM; on PI3Kβ, less than 1 µM; at PI3Kα, less than 10 µM.
Consider `CC(C)N1CCC(Oc2nc([C@H](C)Nc3ccnc4ccnn34)cc3cccc(Cl)c23)CC1` [Compound 107], for which the concentration for half-maximal inhibition (IC50) is less than 0.1 µM with Balb/c splenic B cells; less than 10 µM on PI3Kγ; less than 0.1 µM at PI3Kδ; less than 10 µM at PI3Kβ; less than 10 µM at PI3Kα.
For the compound `CC(C)N1CCC(Oc2nc([C@H](C)Nc3ncnc4cccnc34)cc3cccc(Cl)c23)CC1` [Compound 108], the IC50 with Balb/c splenic B cells is less than 1 µM; on PI3Kγ, less than 0.1 µM; at PI3Kδ it was less than 0.1 µM; on PI3Kβ, more than 10 µM; at PI3Kα it was less than 10 µM.
Consider `C[C@H](Nc1ncnc2scnc12)c1cc2cccc(Cl)c2c(C(=O)N2CCOCC2)n1` [Compound 116], for which the IC50 is less than 0.1 µM in the assay with Balb/c splenic B cells; less than 1 µM at PI3Kγ; less than 0.1 µM on PI3Kδ; less than 1 µM at PI3Kβ; less than 10 µM on PI3Kα.
Regarding `C[C@H](Nc1ncnc2ccccc12)c1cc2cccc(Cl)c2c(C(=O)N2CCOCC2)n1` [Compound 119], the IC50 was less than 1 µM in the assay on Balb/c splenic B cells; less than 1 µM at PI3Kγ; less than 0.1 µM on PI3Kδ; more than 10 µM at PI3Kβ; less than 10 µM on PI3Kα.
Regarding `C[C@H](Nc1ccnc2ccnn12)c1cc2cccc(Cl)c2c(C(=O)N2CCOCC2)n1` [Compound 120], the IC50 in the assay on Balb/c splenic B cells was less than 0.1 µM; on PI3Kγ, less than 1 µM; on PI3Kδ, less than 0.1 µM; at PI3Kβ it was less than 10 µM; on PI3Kα, less than 10 µM.
Turning to `C[C@H](Nc1ncnc2scnc12)c1cc2cccc(Cl)c2c(OCCN2CCCC2)n1` [Compound 121], the IC50 with Balb/c splenic B cells was less than 0.1 µM; on PI3Kγ it was less than 1 µM; at PI3Kδ, less than 0.1 µM; at PI3Kβ, less than 1 µM; at PI3Kα, less than 1 µM.
With `CC(C)N1CCC(Oc2nc([C@H](C)Nc3ncnc4scnc34)cc3cccc(Cl)c23)CC1` [Compound 122], the half-inhibitory concentration (IC50) is less than 1 µM in the assay on Balb/c splenic B cells; less than 10 µM at PI3Kγ; less than 0.1 µM at PI3Kδ; less than 10 µM on PI3Kβ; less than 10 µM at PI3Kα.
